ChEMBL document CHEMBL5584249, “Machine learning-based QSAR and LB-PaCS-MD guided design of SARS-CoV-2 main protease inhibitors” (Bioorg Med Chem Lett, 2024)

Target: Replicase polyprotein 1ab (Severe acute respiratory syndrome coronavirus 2, UniProt P0DTD1)
Test: Inhibition of recombinant SARS CoV-2 main protease by FRET assay
Conditions: not given

Row | Structure (SMILES) | pIC50
1 | Cc1ccc(-n2[se]c3ccccc3c2=O)cc1 | 5.64
2 | COc1ccc(-n2[se]c3ccccc3c2=O)cc1 | 5.903
3 | O=c1c2ccccc2[se]n1-c1ccc(F)cc1 | 5.556
4 | O=c1c2ccccc2[se]n1-c1cc(Cl)cc(Cl)c1 | 6.194
5 | N#Cc1cccc(-n2[se]c3ccccc3c2=O)c1 | 6.42
6 | O=c1c2ccccc2[se]n1-c1c(F)cccc1F | 5.68
7 | O=c1c2ccccc2[se]n1Cc1ccc(F)cc1 | 6
8 | CCc1ccc(-n2[se]c3ccccc3c2=O)cc1 | 5.209
9 | COc1ccc(F)cc1-n1[se]c2ccccc2c1=O | 5.481
10 | COc1cc(F)ccc1-n1[se]c2ccccc2c1=O | 5.745
11 | O=c1c2ccccc2[se]n1-c1ccc(Br)cc1 | 5.556
12 | O=c1c2ccccc2[se]n1-c1cccc(Cl)c1 | 6.167
13 | O=c1c2ccccc2[se]n1-c1cccc(C(F)(F)F)c1 | 5.558
14 | COc1ccc(Cn2[se]c3ccccc3c2=O)c(OC)c1 | 6.215
15 | Cc1ccccc1-n1[se]c2ccccc2c1=O | 5.129

Same assay, conditions: read-out: IC50

Row | Structure (SMILES) | IC50 [µM]
16 | O=c1c2ccccc2[se]n1-c1ccc(C(F)(F)F)cc1 | 0.9
17 | COc1ccc2[se]n(-c3ccccc3)c(=O)c2c1 | 6.4
18 | CCCCCCCc1ccc(-n2[se]c3ccccc3c2=O)cc1 | 5.56
19 | CCCCCCCCc1ccc(-n2[se]c3ccccc3c2=O)cc1 | 2.69

Same assay, conditions: read-out: pIC50 (converted)

Row | Structure (SMILES) | IC50 [µM]
20 | O=c1c2ccccc2[se]n1-c1ccc(C(F)(F)F)cc1 | 0.883
21 | COc1ccc2[se]n(-c3ccccc3)c(=O)c2c1 | 6.18
